Like-named read-outs stand apart in the source and are kept apart here.
Tests used:
Assay in all cases: biochemical
Set-up in all cases: Reaction Biology 371-kinase panel at Km ATP, per cent enzyme activity relative to DMSO, single dose in duplicate
Conditions in all cases: duplicate measurements, Km ATP
BMX/ETK = BMX/ETK (Homo sapiens, UniProt P51813)
Protocol: (§1) To assess kinase selectivity, we screened TP-5801 (300 nM) against a panel of 371 kinases in vitro. […] In addition to TNK1, only 7 other kinases were inhibited by more than 90% (Supplementary Fig. 8 and Supplementary Data 2). […] The resulting % Enzyme activity (relative to DMSO controls) were plotted in GraphPad and IC50 values were determined by sigmoidal dose-response (variable slope) curve fits, with a bottom constraint of 0.

BRSK2 = BRSK2 (Homo sapiens, UniProt Q8IWQ3)
Protocol: as §1

CDK8/cyclin C = CDK8/cyclin C (Homo sapiens, UniProt P49336)
Protocol: as §1

EPHA8 = EPHA8 (Homo sapiens, UniProt P29322)
Protocol: as §1

HIPK4 = HIPK4 (Homo sapiens, UniProt Q8NE63)
Protocol: as §1

KDR/VEGFR2 = KDR/VEGFR2 (Homo sapiens, UniProt P35968)
Protocol: as §1

KSR2 = KSR2 (Homo sapiens, UniProt Q6VAB6)
Protocol: as §1

MAPKAPK2 = MAPKAPK2 (Homo sapiens, UniProt P49137)
Protocol: as §1

MST4 = biological target: T1, MST4 (Homo sapiens, UniProt Q9P289)
T1 construct: gene STK26
Protocol: as §1

NEK11 = NEK11 (Homo sapiens, UniProt Q8NG66)
Protocol: as §1

NEK3 = NEK3 (Homo sapiens, UniProt P51956)
Protocol: as §1

PIM1 = PIM1 (Homo sapiens, UniProt P11309)
Protocol: as §1

PKMYT1 = biological target: T2, PKMYT1 (Homo sapiens, UniProt Q99640)
T2 sequence (Q99640 1-499): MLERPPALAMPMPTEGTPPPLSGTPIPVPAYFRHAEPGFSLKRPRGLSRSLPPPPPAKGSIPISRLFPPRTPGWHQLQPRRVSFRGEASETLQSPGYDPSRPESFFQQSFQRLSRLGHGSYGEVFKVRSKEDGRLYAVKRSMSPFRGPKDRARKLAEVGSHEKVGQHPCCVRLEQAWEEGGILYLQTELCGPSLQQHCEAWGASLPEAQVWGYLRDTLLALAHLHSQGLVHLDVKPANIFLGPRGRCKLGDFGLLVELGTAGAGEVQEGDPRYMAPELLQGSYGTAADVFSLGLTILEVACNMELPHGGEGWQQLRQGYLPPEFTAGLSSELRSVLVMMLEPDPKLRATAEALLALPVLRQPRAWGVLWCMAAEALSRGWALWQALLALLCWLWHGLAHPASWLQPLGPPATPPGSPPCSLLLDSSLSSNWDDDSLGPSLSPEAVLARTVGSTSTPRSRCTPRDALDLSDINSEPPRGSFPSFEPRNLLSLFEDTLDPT
Protocol: as §1

PKN2/PRK2 = PKN2/PRK2 (Homo sapiens, UniProt Q16513)
Protocol: as §1

PYK2 = biological target: T3, PYK2 (Homo sapiens, UniProt Q14289)
T3 construct: gene PTK2B
Protocol: as §1

VRK2 = VRK2 (Homo sapiens, UniProt Q86Y07)
Protocol: as §1

ZAP70 = ZAP70 (Homo sapiens, UniProt P43403)
Protocol: as §1

[1] = read-out: % Enzyme Activity (relative to DMSO controls) / TP-0005801 (0.3µM) / Data 1
[2] = read-out: % Enzyme Activity (relative to DMSO controls) / TP-0005801 (0.3µM) / Data 2

BMX/ETK, sequence (P51813 whole entry): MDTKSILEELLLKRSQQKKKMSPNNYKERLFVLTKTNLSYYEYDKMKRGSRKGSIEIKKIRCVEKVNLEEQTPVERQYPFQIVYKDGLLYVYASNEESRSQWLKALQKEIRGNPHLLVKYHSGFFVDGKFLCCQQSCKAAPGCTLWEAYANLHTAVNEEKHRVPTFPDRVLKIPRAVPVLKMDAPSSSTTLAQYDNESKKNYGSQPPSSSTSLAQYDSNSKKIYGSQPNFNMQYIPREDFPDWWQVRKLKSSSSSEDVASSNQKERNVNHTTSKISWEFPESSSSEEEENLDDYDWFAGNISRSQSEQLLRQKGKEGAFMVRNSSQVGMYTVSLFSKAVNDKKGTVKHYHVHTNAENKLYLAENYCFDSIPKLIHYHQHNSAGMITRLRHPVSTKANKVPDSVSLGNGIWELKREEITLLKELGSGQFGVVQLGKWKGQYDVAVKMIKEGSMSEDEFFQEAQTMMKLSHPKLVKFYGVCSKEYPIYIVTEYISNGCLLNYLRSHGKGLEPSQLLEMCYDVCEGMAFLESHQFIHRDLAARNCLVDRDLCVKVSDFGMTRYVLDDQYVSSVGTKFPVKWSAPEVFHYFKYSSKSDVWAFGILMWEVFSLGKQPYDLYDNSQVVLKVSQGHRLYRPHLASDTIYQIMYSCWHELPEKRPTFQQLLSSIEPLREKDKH
ZAP70, sequence (P43403 whole entry): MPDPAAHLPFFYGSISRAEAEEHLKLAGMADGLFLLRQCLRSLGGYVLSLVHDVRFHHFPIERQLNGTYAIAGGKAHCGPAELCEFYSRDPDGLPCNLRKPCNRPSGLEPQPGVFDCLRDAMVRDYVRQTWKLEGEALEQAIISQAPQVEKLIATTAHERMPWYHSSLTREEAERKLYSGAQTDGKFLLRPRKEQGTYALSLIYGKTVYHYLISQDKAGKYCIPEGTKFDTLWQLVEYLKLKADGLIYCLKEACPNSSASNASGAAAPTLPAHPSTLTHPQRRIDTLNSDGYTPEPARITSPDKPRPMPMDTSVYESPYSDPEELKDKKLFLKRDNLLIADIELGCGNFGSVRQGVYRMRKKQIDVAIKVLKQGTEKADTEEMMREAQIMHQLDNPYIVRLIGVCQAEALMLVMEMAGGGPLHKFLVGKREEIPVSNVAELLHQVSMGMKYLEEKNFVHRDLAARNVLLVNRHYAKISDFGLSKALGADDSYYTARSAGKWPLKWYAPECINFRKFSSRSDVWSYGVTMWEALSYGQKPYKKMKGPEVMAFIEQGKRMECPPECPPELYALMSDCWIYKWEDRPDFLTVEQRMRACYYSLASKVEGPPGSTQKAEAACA
T1 sequence (Q9P289 whole entry): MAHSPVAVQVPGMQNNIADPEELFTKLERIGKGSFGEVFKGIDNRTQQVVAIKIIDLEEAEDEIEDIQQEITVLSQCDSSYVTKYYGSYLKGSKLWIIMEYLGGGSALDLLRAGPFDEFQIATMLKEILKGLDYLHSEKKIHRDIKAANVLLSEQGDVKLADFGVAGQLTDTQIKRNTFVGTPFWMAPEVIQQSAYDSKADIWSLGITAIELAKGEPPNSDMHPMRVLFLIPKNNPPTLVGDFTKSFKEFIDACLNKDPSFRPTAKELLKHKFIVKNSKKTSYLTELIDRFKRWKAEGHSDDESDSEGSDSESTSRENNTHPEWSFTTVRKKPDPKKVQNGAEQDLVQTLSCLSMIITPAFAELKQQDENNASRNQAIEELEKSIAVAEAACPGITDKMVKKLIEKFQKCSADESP
NEK3, sequence (P51956 whole entry): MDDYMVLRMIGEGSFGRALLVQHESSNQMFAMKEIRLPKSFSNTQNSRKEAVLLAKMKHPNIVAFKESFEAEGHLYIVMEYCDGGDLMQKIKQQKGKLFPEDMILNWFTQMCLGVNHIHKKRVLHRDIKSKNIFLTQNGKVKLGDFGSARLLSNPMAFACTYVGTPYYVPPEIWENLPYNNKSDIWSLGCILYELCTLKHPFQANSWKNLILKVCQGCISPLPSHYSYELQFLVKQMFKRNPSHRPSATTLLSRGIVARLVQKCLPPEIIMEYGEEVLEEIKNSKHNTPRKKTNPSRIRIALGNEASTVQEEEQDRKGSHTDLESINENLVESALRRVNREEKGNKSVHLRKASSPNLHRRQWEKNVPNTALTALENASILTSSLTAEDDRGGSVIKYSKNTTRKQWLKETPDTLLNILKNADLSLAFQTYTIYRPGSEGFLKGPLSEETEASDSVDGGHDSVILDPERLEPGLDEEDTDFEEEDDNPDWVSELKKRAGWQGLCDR
MAPKAPK2, sequence (P49137 whole entry): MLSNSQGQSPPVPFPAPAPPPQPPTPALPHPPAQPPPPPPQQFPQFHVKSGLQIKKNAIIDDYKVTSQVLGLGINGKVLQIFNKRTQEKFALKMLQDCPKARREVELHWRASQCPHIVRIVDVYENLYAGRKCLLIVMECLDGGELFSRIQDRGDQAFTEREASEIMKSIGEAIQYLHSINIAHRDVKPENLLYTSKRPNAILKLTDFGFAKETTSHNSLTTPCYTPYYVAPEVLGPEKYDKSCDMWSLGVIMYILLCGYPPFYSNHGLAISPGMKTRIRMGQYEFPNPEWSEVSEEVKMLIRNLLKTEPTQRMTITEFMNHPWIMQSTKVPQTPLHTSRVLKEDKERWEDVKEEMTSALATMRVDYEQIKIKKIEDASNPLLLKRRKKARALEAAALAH
HIPK4, sequence (Q8NE63 whole entry): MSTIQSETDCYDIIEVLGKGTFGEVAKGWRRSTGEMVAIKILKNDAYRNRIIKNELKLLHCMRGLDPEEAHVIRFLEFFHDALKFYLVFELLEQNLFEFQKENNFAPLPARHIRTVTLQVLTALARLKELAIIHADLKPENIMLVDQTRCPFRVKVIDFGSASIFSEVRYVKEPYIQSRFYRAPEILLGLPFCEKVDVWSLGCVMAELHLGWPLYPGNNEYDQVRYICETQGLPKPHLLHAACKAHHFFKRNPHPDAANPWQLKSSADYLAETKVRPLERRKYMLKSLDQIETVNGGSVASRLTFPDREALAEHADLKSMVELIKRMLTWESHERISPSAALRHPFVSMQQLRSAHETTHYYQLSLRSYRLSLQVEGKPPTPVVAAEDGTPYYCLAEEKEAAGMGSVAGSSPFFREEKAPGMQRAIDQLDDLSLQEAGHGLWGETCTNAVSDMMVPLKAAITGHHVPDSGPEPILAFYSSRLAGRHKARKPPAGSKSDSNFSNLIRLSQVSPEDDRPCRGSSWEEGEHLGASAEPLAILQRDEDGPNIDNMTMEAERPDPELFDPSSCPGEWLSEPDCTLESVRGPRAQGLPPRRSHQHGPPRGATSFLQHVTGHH
T3 sequence (Q14289 whole entry): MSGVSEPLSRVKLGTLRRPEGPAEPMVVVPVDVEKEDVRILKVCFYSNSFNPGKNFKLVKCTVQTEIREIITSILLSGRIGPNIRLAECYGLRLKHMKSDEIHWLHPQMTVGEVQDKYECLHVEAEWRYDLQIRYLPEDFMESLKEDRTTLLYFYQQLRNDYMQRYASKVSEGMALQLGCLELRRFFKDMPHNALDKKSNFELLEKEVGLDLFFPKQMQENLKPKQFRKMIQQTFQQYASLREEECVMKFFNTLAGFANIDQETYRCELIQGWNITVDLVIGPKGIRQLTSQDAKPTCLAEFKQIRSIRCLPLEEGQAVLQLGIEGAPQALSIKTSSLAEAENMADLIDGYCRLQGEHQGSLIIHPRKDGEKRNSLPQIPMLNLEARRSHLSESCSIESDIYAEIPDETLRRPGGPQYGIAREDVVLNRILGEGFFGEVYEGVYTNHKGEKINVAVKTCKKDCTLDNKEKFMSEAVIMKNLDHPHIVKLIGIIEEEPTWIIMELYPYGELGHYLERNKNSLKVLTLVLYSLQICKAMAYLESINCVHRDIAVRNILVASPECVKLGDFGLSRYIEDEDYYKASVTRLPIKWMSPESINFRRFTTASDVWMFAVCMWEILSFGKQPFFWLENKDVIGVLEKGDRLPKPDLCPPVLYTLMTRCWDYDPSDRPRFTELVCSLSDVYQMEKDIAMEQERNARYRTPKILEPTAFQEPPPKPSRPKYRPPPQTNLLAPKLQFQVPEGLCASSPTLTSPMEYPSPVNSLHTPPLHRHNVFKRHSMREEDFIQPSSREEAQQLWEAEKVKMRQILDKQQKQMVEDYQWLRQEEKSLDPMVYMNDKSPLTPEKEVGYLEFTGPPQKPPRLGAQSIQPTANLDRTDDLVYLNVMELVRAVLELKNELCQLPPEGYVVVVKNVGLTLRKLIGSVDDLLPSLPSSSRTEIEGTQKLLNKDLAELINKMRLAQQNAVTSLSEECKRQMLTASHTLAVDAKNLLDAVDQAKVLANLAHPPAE
PIM1, sequence (P11309 whole entry): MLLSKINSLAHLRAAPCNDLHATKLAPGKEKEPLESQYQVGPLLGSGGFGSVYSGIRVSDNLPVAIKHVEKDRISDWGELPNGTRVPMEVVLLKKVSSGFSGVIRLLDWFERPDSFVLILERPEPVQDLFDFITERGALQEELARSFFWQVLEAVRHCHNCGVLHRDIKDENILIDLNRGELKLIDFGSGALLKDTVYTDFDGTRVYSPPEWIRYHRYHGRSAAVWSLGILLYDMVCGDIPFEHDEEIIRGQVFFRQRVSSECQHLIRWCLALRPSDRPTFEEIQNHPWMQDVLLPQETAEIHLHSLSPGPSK

remaining activity at 0.3 µM (BMX/ETK; [1]): 115%
remaining activity at 0.3 µM (BMX/ETK; [2]): 114%
remaining activity at 0.3 µM (BRSK2; [1]): 119%
remaining activity at 0.3 µM (BRSK2; [2]): 116%
remaining activity at 0.3 µM (CDK8/cyclin C; [1]): 31.9%
remaining activity at 0.3 µM (CDK8/cyclin C; [2]): 31.6%
remaining activity at 0.3 µM (EPHA8; [1]): 95.1%
remaining activity at 0.3 µM (EPHA8; [2]): 93.8%
remaining activity at 0.3 µM (HIPK4; [1]): 79.6%
remaining activity at 0.3 µM (HIPK4; [2]): 78.6%
remaining activity at 0.3 µM (KDR/VEGFR2; [1]): 93.5%
remaining activity at 0.3 µM (KDR/VEGFR2; [2]): 93.2%
remaining activity at 0.3 µM (KSR2; [1]): 96.9%
remaining activity at 0.3 µM (KSR2; [2]): 94.2%
remaining activity at 0.3 µM (MAPKAPK2; [1]): 99%
remaining activity at 0.3 µM (MAPKAPK2; [2]): 96.4%
remaining activity at 0.3 µM (MST4; [1]): 101%
remaining activity at 0.3 µM (MST4; [2]): 92.7%
remaining activity at 0.3 µM (NEK11; [1]): 99.3%
remaining activity at 0.3 µM (NEK11; [2]): 94.5%
remaining activity at 0.3 µM (NEK3; [1]): 89%
remaining activity at 0.3 µM (NEK3; [2]): 88%
remaining activity at 0.3 µM (PIM1; [1]): 93.2%
remaining activity at 0.3 µM (PIM1; [2]): 92.8%
remaining activity at 0.3 µM (PKMYT1; [1]): 62.9%
remaining activity at 0.3 µM (PKMYT1; [2]): 62.8%
remaining activity at 0.3 µM (PKN2/PRK2; [1]): 97.2%
remaining activity at 0.3 µM (PKN2/PRK2; [2]): 95.9%
remaining activity at 0.3 µM (PYK2; [1]): 23.7%
remaining activity at 0.3 µM (PYK2; [2]): 23.5%
remaining activity at 0.3 µM (VRK2; [1]): 96%
remaining activity at 0.3 µM (VRK2; [2]): 93.9%
remaining activity at 0.3 µM (ZAP70; [1]): 95.5%
remaining activity at 0.3 µM (ZAP70; [2]): 91.3%
Structure (SMILES): COc1cc(N2CCN(C)CC2)c(C)cc1Nc1ncc(Br)c(Nc2cccnc2N(C)C)n1 [TP-5801]

— publication PMC8429728, “TNK1 is a ubiquitin-binding and 14-3-3-regulated kinase that can be targeted to block tumor growth” (Nature Communications, 2021)
